Drawing on BindingDB's records for doi:10.1073/pnas.0609757104 (University of Central Florida College of Medicine, 2007), this text covers IC50 for one compound.

In general, IC50 refers to the concentration that inhibits the measured activity by half.

The experiment has as its target T1, Signal transducer and activator of transcription 1-alpha/beta (Homo sapiens, UniProt P42224).
T1 sequence (P42224 whole entry): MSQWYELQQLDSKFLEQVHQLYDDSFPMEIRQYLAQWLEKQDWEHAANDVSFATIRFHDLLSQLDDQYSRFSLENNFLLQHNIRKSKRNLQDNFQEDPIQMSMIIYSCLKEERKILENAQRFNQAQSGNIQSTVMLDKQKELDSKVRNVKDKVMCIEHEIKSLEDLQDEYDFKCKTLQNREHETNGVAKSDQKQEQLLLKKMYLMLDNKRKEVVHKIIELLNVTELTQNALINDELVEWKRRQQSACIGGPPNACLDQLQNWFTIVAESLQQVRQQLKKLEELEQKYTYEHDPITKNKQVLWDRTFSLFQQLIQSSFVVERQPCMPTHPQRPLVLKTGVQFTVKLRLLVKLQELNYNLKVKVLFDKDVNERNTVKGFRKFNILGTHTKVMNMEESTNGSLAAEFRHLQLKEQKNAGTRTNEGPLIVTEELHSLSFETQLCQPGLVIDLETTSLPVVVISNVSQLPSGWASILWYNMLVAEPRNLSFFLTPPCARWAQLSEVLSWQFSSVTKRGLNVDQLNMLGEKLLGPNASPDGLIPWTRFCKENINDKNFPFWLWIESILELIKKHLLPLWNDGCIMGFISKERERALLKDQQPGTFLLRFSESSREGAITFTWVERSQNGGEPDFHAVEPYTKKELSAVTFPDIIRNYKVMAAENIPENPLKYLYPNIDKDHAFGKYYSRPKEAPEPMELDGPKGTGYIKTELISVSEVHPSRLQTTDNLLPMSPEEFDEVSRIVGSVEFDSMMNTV
Description: Electrophoretic Mobility Shift Assay (EMSA). The following applies: pH 7.8; 22 °C. How it is done:
STAT proteins were expressed in Sf9 cells from a baculovirus encoding the recombinant protein. A nuclear extract of the Sf9 cells was incubated with 32P-labeled high affinity c-fos sis inducible element (hSIE) either alone or in the presence of inhibitor. After incubation, samples were electrophoresed on polyacrylamide gels. The gels were dried, exposed to a phosphorimager screen and scanned. IC50 values were derived from plots of spot intensity versus phosphopeptide concentration. The affinity of peptides to the SH2 domain is measured by the intensity of the radioactivity of the Stat-DNA complex band in the electrophoresis gel.
Background: Mobility shift assays separate free from complexed probe on a gel.

`Cc1ccc(S(=O)(=O)OCC(=O)Nc2ccc(C(=O)O)c(O)c2)cc1` [2-hydroxy-4-(2-{[(4-methylbenzene)sulfonyl]oxy}acetamido)benzoic acid]: the IC50 is more than 300 µM.
